Assays:
hERG [1] = target: T1, hERG (Homo sapiens, UniProt Q12809); assay: hERG flux (Tl+ flux, FLIPR) in HEK293 cells; type: cell-based; conditions: HEK293 cells stably expressing hERG
T1 construct: expressed in transfected cells
Protocol: HEK293 cells stably-expressing hERG channels were grown (37° C., 5% CO2) in Dulbecco's Modified Eagle's Media supplemented with 10% Sigma fetal bovine serum, non-essential amino acids, 2 mM L-glutamine and 500 μg/ml G418, at incubator.
A 2 mM stock of BTC-AM dye (Molecular Probes, Eugene, Oreg.) was prepared in 100% DMSO and then added 1:1 to 10% (w/v) pluronic acid in DMSO on the day of assay. The dye was then diluted in hERG external EP buffer (140 mM NaCl, 4.0 mM KCl, 1.8 mM CaCl2, 1.0 mM MgCl2, 10 mM HEPES, pH 7.3 and 10 mM glucose; all buffer components obtained from Sigma Chemical). […] Cells are incubated at 21° C. for 45 minutes.
These compounds were then serially-diluted at a 1:2 ratio in DMSO in columns 1-10 and 11-20 of a 384-well plate. Assay-ready plates were generated by stamping 2.5 μl from the DMSO serially diluted plate, which was prepared on the Velocity 11 BioCel. Aqueous plates were created by adding 48 μl of EP buffer and then were diluted 30-45 minutes before the assay was read on the FLIPR. […] Final DMSO concentration in the assay is 1%. Assay-ready aqueous plates were prepared and diluted on a Cybio liquid handler.
Data collection proceeded every second for 48 seconds, and then continued every three seconds for an additional 2 minutes.
The dynamic range of the assay was determined from blanks and totals wells. The totals wells (columns 21 and 22) define maximal hERG activation for the plate (no test compound present), and the blanks wells (columns 23 and 24) define 100% hERG inhibition. […] Raw data points in each sample well were first corrected for cell/signal variation, negative control (blanks) background, and normalized to the positive controls (totals) using the online FLIPR software. Test compound concentration response curves for the hERG Tl^+ flux data were then fit using Excel Fit (ID Business Solutions Limited, Surrey, UK) with a single-site logistic equation, Y=A+((B−A)/1+((C/X)^D))) where A=maximal inhibition. Data were analyzed by fitting maximum amplitudes of change in fluorescence for Tl^+ flux for a given condition of test compound.

[2] = Parallel Artificial Membrane Permeability Assay (PAMPA); type: in vitro ADME; conditions: apical and basolateral pH 7.4
Protocol: All experiments are conducted in triplicate determinations.

hERG [3] = target: T1, hERG; assay: hERG patch clamp (whole-cell, HEK-293); type: cell-based; conditions: for inhibition at 30000 nM: pH 7.4, 30,000 nM; for inhibition at 10000 nM: pH 7.4, 10,000 nM
[4] = target: human cardiac sodium channel, SCN5A (Nav1.5) (Homo sapiens, UniProt Q14524); assay: Sodium channel patch clamp (whole-cell, HEK-293); type: cell-based; conditions: HEK-293 cells expressing human cardiac sodium channel SCN5A, 30,000 nM, read-out: Na+ channel patch clamp (% inhibition)
Protocol: The compound was tested at a protein-free aqueous buffer. For determining steady state inhibition, sodium currents were elicited every 5 seconds using the following voltage protocol: cells were held at a potential of −90 mV and stepped to −20 mV for 60 ms. Effects were calculated by measuring inhibition of peak current during the test pulse to −20 mV. Rate-dependence of inhibition was assessed by stimulation at frequencies of 1 Hz and 4 Hz.

[5] = Single-dose pharmacokinetics in rats; type: in vivo; conditions: male, Sprague-Dawley, plasma, rat, dose per compound (mg/kg)
Protocol: (1500-2000×g) to obtain plasma. […] Plasma samples, obtained by centrifugation at 4° C.

[6] = Single-dose pharmacokinetics in monkeys; type: in vivo; conditions: male, cynomolgus monkey, plasma, dose per compound (mg/kg)
Text: (1500-2000×g) to obtain plasma.

human CCR2 [7] = target: T2, human CCR2 (Homo sapiens, UniProt P41597); assay: Human peripheral blood mononuclear cell binding (CCR2 binding), 125I-human MCP-1 tracer; design: hPBMCs were isolated from human leukopak (Biological Specialty Inc.); endogenous in cells; host or cells: human peripheral blood mononuclear cells from leukopak (Biological Specialty Inc.); conditions: hPBMCs, 125I-MCP-1
T2 sequence (P41597 1-360 isoform P41597-2): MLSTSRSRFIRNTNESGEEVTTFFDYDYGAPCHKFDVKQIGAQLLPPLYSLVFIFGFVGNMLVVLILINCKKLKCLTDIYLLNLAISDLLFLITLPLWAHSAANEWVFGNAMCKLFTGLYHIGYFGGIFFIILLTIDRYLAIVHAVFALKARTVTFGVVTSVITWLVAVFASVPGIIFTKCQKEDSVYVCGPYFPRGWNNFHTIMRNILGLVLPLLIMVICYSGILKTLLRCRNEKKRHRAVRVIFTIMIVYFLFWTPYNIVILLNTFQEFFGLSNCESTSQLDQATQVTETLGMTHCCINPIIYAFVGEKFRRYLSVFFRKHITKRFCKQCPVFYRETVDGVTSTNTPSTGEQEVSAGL
Protocol: See also: Yoshimura et al., J. Immunol. 1990, 145, 292. The human CCR2 binding assay was established with human peripheral blood mononuclear cells (hPBMCs) using ^125I-human MCP-1 as the tracer ligand. hPBMCs were isolated from human leukopak (Biological Specialty Inc.) using a standard protocol with Ficoll-Hypaque (Mediatech Cellgro). Isolated hPBMCs were washed and diluted to 1×10^7/ml in binding buffer (RPMI-1640, 0.1% BSA, 20 mM Hepes, pH 7.4). ^125I-MCP-1 (NEN/Perk Elmer) was diluted to 0.45 nM in binding buffer. The compound was diluted in binding buffer at 3-fold the final concentrations used in the binding assay. The binding assay was performed using a 96-well filter plate (Millipore). Total ^125I-MCP-1 binding was assessed as follows: to each reaction of a total volume of 150 μl were added 5×10^5 cells, 0.15 nM […], and compound such that the final concentration ranged from 0 to 100 nM. The plate was incubated at room temperature for 30 minutes followed by three washes with RPMI-1640, 0.1% BSA, 0.4 M NaCl, 20 mM Hepes, pH 7.4 using a vacuum manifold filtration (Millipore). After washing, the plate was air-dried for 60 minutes at room temperature. This was followed by adding 25 μl of Microscint 20 into each well. The plate was sealed and counted on the Trilux for 1 minute. Non-specific binding was determined in the presence of 300 nM cold MCP-1 (PeproTech Inc.). Specific 1-MCP-1 was calculated as the difference between total and non-specific binding. All conditions were tested in duplicate.

human CCR2 [8] = target: T2, human CCR2; assay: CCR2 chemotaxis (MCP-1-induced, THP-1 cells); type: cell-based; design: hPBMCs were isolated from human leukopak (Biological Specialty Inc.); endogenous in cells; host or cells: human peripheral blood mononuclear cells from leukopak (Biological Specialty Inc.)
Protocol: The human CCR2 chemotaxis assay was conducted with the human monocytic cell line, THP-1. THP-1 cells were first labeled with the fluorescent dye Calcein-AM in phenol red-free, BSA-free RPMI-1640 (pH 7.4) at 37° C. for 30 minutes with gentle mixing every 15 minutes. The labeled cells were then washed and re-suspended at 1×10^5/ml in chemotaxis buffer (phenol red-free RPMI-1640, 0.1% BSA, pH 7.4). The test compound was diluted in chemotaxis buffer such that the final assay concentration ranged from 0.01 nM to 1 μM. […] To perform the assay, an equal volume of test compound dilutions was mixed with an equal volume of labeled THP-1 cells (Mixture 1), and an equal volume of test compound dilutions was mixed with an equal volume of diluted MCP-1 ligand (Mixture 2). Both mixtures were incubated independently at 37° C. for 10 minutes followed by gentle mixing. MCP-1-induced chemotaxis was then measured in a chemotaxis plate (Becton Dickinson) by placing 50 μl of Mixture 1 in the top chamber and 225 μl of Mixture 2 in the bottom chamber. The plate was covered with a lid and incubated at 37° C. for 30 minutes. 30 minutes later, the plate was read on a Cytofluor. All conditions were tested in duplicate. […] The inhibition achieved by graded concentrations of test compound was calculated as a percentage of the compound-free MCP-1 control.

human CCR2 [9] = target: T2, human CCR2; assay: THP-1 binding (CCR2, 125I-human MCP-1 tracer); design: THP-1 human monocytic leukemic cell line, which expresses endogenous CCR2; endogenous in cells; host or cells: THP-1 human monocytic leukemia cells; conditions: metabolite examples; THP-1 cells, 125I-MCP-1
Protocol: The human CCR2 binding assay was also established with the THP-1 human monocytic leukemic cell line, which expresses endogenous CCR2, using 125I-human MCP-1 as the tracer ligand. Radioligand competition binding assays were used for assessment of binding affinity of test compounds to the CCR2 receptor. For radioligand competition studies, 100 μl containing 2.5×10^5 THP-1 cells/well (in assay buffer containing 50 mM HEPES, pH7.4, 5 mM MgCl2, 1 mM CaCl2 and 0.5% BSA) were added to 96-well assay plates containing test compound in 3-fold serial dilution, with final concentrations ranging from […]. Subsequently, 50 μl ^125I-MCP-1 radioligand at a final concentration of 0.2 nM in assay buffer were added to the reaction. After a 90 minute incubation period at room temperature, the binding reaction was terminated by harvesting on GF/B filter plates (PerkinElmer Cat. No. 6005177) followed by washing with ice-cold wash buffer (50 mM HEPES, pH 7.4, 0.1% BSA, 0.5 M NaCl) to remove unbound ligand. After washing, the plate was dried for 45 minutes at 60° C. followed by addition of 40 μl MicroScint 20 scintillation fluid, sealed and analyzed by the Packard TopCount reader. […] The competition data was plotted as a percentage inhibition of radioligand specific bound in the absence of test compound (percent of total signal). After correcting for non-specific binding, IC50 values were determined.

[10] = figure in parentheses in the cell not copied (count of determinations), read-out: CCR2 Binding IC50
[11] = metabolite examples, read-out: PBMC Binding IC50

human cardiac sodium channel, SCN5A (Nav1.5), sequence (Q14524 whole entry): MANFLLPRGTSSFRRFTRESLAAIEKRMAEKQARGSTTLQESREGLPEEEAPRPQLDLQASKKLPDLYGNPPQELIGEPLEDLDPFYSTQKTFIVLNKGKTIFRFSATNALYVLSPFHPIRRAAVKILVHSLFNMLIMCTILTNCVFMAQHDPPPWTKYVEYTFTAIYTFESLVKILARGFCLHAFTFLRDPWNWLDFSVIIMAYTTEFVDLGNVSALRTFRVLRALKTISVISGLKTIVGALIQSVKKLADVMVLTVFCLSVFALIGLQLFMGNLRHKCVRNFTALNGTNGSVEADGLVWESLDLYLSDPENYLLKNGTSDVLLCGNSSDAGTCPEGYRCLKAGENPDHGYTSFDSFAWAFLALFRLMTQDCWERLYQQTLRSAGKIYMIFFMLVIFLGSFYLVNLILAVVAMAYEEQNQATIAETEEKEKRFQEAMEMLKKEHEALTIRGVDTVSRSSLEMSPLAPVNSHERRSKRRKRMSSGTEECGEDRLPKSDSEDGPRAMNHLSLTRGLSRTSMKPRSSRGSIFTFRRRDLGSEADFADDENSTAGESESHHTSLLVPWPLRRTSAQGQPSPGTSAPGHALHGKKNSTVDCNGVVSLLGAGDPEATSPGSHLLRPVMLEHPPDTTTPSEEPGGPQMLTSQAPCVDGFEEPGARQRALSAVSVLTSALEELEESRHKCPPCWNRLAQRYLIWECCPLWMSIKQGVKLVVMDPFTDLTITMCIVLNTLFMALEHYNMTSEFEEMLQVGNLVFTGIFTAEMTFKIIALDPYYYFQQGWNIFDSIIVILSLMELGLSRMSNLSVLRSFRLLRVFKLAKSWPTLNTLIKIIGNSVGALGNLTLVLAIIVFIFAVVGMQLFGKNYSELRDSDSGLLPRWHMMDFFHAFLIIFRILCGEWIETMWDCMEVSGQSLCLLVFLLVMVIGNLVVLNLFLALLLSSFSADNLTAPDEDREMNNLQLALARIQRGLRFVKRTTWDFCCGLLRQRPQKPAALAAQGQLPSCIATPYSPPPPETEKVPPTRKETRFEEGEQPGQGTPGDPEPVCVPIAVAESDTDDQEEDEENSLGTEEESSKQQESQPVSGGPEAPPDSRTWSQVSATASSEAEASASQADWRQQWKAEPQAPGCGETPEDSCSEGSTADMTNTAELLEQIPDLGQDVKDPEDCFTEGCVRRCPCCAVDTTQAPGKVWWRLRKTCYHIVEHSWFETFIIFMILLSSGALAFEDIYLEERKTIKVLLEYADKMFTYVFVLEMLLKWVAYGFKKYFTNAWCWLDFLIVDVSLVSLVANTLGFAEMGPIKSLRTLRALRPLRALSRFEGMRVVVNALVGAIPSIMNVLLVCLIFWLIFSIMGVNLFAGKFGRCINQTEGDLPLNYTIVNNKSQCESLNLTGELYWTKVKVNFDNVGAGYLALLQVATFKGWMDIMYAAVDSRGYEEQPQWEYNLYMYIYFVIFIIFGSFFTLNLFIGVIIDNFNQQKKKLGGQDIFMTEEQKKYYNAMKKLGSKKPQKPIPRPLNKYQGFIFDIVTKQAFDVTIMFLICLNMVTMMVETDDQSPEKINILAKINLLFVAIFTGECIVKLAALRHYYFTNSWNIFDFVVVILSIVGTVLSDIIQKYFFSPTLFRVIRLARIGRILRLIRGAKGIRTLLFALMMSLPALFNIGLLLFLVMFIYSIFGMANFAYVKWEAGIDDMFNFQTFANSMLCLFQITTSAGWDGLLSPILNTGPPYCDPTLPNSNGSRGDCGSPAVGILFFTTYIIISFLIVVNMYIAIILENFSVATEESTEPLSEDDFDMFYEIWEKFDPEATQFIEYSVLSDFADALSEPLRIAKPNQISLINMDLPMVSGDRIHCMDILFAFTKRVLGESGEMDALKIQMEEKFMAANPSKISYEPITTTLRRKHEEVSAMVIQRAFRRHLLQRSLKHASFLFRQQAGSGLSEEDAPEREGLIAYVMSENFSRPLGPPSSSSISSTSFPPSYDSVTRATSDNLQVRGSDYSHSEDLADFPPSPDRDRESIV
T1 sequence (Q12809 whole entry): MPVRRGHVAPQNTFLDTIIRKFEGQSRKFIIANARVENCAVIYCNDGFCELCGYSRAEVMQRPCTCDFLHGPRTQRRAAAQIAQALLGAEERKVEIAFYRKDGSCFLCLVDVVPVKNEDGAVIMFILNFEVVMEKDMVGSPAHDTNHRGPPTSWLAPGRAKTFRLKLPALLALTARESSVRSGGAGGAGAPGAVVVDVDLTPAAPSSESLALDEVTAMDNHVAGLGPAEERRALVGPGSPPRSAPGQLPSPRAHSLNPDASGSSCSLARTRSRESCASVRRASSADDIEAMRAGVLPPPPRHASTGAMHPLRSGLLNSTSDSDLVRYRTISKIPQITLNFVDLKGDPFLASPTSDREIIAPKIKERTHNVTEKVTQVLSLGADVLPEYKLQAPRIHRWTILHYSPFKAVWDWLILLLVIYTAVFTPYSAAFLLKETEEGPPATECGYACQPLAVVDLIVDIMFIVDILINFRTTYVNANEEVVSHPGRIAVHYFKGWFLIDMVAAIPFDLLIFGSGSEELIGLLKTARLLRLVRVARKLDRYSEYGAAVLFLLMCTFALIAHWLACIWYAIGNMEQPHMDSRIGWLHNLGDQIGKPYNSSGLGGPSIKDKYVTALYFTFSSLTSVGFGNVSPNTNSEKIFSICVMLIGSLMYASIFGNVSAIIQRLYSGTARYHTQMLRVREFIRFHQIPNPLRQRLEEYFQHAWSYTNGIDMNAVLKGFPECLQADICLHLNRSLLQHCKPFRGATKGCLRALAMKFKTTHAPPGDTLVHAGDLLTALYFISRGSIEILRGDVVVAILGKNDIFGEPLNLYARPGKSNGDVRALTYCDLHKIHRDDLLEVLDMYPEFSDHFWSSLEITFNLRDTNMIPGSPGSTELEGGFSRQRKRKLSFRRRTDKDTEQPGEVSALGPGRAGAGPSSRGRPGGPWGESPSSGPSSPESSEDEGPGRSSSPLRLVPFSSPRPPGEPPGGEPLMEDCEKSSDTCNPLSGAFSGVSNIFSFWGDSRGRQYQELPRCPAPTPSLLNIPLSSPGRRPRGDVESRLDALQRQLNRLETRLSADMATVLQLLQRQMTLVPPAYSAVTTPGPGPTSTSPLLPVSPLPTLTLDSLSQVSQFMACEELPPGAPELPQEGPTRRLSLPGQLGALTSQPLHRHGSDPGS

Papp at 4 h, 100 µM [2] [×10⁻⁶ cm/s] | IC50 (human CCR2 [7]; [10]) [nM] | IC50 (human CCR2 [8]) [nM] | IC50 (human CCR2 [9]) [nM] | IC50 (human CCR2 [7]; [11]) [nM] | Compound | IC50 (hERG [1]) [nM] | inhibition at 30000 nM (hERG [3]) [%] | inhibition at 30000 nM [4] [%] | inhibition at 10000 nM (hERG [3]) [%] | other results
22.8 | 5.18 ± 1.98 | 1.6 ± 0.42 |  |  | CCC(=O)N[C@@H]1C[C@H](N)CC[C@@H]1N1CC[C@H](Nc2ncnc3ccc(C(F)(F)F)cc23)C1=O [Example 10, N-((1R,2S,5R)-5-amino-2-((3S)-2-oxo-3-((6-(trifluoromethyl)-4-quinazolinyl)amino)-1-pyrrolidinyl)cyclohexyl)propanamide] | > 80000 | 33 | 35 |  | clearance ([5]; IV): 45 mL/min/kg; AUC ([5]; PO): 4.23 µM·h; bioavailability ([5]; oral bioavailability): 57%; clearance ([6]; IV): 21 mL/min/kg; AUC ([6]; PO): 1.08 µM·h; bioavailability ([6]; oral bioavailability): 67%
 |  |  | 139 |  | CC(=O)N[C@@H]1C[C@H](NC(C)C)CC[C@@H]1N1CC[C@H](Nc2nc[n+]([O-])c3ccc(C(F)(F)F)cc23)C1=O [Example 6, N-((1R,2S,5R)-5-(isopropylamino)-2-((3S)-3-((1-oxido-6-(trifluoromethyl)-4-quinazolinyl)amino)-2-oxo-1-pyrrolidinyl)cyclohexyl)acetamide] |  |  |  |  | 
 |  |  | 19.9 | 14.9 ± 5.2 | CC(=O)N[C@@H]1C[C@H](NC(C)(C)C)CC[C@@H]1N1CC[C@H](Nc2nc[n+]([O-])c3ccc(C(F)(F)F)cc23)C1=O [Example 14, N-((1R,2S,5R)-5-(tert-butylamino)-2-((3S)-3-((1-oxido-6-(trifluoromethyl)-4-quinazolinyl)amino)-2-oxo-1-pyrrolidinyl)cyclohexyl)acetamide] |  |  |  |  | 
32.6 ± 22.1 | 1.72 ± 0.54 | 2.85 |  |  | CC(C)N(C)[C@@H]1CC[C@H](N2CC[C@H](Nc3ncnc4ccc(C(F)(F)F)cc34)C2=O)[C@H](NC=O)C1 [Example 7, N-((1R,2S,5R)-5-(isopropyl(methyl)amino)-2-((S)-2-oxo-3-(6-(trifluoromethyl)quinazolin-4-ylamino)pyrrolidin-1-yl)cyclohexyl)formamide] | > 80000 | 29 | 10 | 12 | 
 |  |  | 21.3 | 27.5 ± 1.4 | CC(=O)N[C@@H]1C[C@H](N(C)C(C)C)CC[C@@H]1N1CC[C@H](Nc2nc[n+]([O-])c3ccc(C(F)(F)F)cc23)C1=O [Example 5, N-((1R,2S,5R)-5-(isopropyl(methyl)amino)-2-((3S)-3-((1-oxido-6-(trifluoromethyl)-4-quinazolinyl)amino)-2-oxo-1-pyrrolidinyl)cyclohexyl)acetamide] |  |  |  |  | 
26.6 | 1.69 ± 0.67 | 0.35 |  |  | CC(=O)N[C@@H]1C[C@H](N(C)C(C)C)CC[C@@H]1N1CC[C@H](NC(=O)c2cccc(C(C)(C)C)n2)C1=O [Example 9, N-((3S)-1-((1S,2R,4R)-2-acetamido-4-(isopropyl(methyl)amino)cyclohexyl)-2-oxo-3-pyrrolidinyl)-6-tert-butyl-2-pyridinecarboxamide] | > 80000 | 41 | 6 | 26 | 

— patent US7687508B2, “Cyclic derivatives as modulators of chemokine receptor activity” (Bristol-Myers Squibb Company, priority 2006, dated 2010)
